Common to all, as to experiment: dopachrome formation, absorbance […] nm, non-linear regression
Holding throughout (conditions): free enzyme; 0.05 M Na-phosphate pH 6.5; 1-30 mM L-DOPA

In assay [1] the test system is tyrosinase from D. rotundata. In kind it is biochemical, Dioscorea cayenensis subsp. rotundata.
The test system of assay [2] is tyrosinase from C. esculenta. In kind it is biochemical, Colocasia esculenta.
The subject of assay [3] is tyrosinase from D. praehensilis. In kind it is biochemical, Dioscorea praehensilis.
The test system of assay [4] is tyrosinase from D. alata. In kind it is biochemical, Dioscorea alata.

A word on the Km: it is the concentration of substrate that gives half-maximal velocity. Consider `N[C@@H](Cc1ccc(O)c(O)c1)C(=O)O` [L-DOPA, 3,4-dihydroxyphenyl-L-alanine], for which the Km was found to be 6.8 ± 2.6 mM in assay [1], 23.7 ± 14 mM in assay [2], 9.6 ± 3.7 mM in assay [3] and 20 ± 11 mM in assay [4].

Source of the values: paper PMC7352059 (Biotechnology Reports, 2020).
